Key:
[1] = biological target: Reverse transcriptase/RNaseH (Human immunodeficiency virus 1, UniProt Q72547); test: Fluorescence-Based RNase H Assay; settings: pH 8; 20 °C
Ribonuclease H1 = biological target: T1, Ribonuclease H1 (Homo sapiens, UniProt O60930); test: Fluorescence-Based RNase H Assay; settings: pH 8; 20 °C
T1 sequence (O60930 whole entry): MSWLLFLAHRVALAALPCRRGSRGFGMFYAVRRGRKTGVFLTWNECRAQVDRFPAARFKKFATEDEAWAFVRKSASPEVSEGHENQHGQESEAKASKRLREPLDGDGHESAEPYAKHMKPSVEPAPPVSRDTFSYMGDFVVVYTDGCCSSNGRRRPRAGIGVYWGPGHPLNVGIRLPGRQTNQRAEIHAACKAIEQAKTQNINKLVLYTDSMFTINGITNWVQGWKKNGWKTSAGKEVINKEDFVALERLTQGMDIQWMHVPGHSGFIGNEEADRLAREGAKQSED

| IC50 [1] | IC50 (Ribonuclease H1) | Structure (SMILES) |
| --- | --- | --- |
| 0.66 µM |  | CC(C)c1ccc(O)c(=O)c(O)c1 [hydroxytropolone, 3] |
| 13 µM | > 100 µM | O=C(O)c1nc(-c2ccccc2)nc(O)c1O |

From BindingDB's records for doi:10.1021/jm900597q (Gilead Sciences, 2009)
